Assay [1] has as its system wild-type B. fungorum LB400. Briefly: Natural chloramphenicol resistance seen during selection of transconjugants. The note with it: citrate medium. Type of assay: cell-based, Burkholderia fungorum. The procedure: A ΔflhA::kan mutant of B. fungorum LB400 was generated by introducing pCM363 by conjugation. […] One tetracycline-sensitive strain representing a ΔfIhA::kan mutant, CM363K.1, was chosen for further study. The plasmid pCM157 was used as described above to produce the ΔflhA strain CM363.1. Analytical PCR was performed with wild-type B. fungorum LB400, CM363K.1, and CM363.1 for confirmation (data not shown).

Structures are written as SMILES. Converted amounts (≈) assume the structure as drawn.

The term MIC denotes the least concentration at which growth counts as inhibited. A low value points to inhibition by little substance.

For `O=C(N[C@H](CO)[C@H](O)c1ccc([N+](=O)[O-])cc1)C(Cl)Cl` [chloramphenicol], the naturally resistant below in assay [1] lay in the range of 10 to 20 µg/mL.
On to `C=O` [formaldehyde], for which the minimal inhibitory concentration (MIC) in the assay with ΔflhA strain CM363.1 was determined as 100 µM (≈ 3 µg/mL).

For the origin of these results see patent publication US10920230B2, “Methylotrophs for aquaculture and animal feed” (KnipBio, Inc., priority 2013, dated 2021).
